Paper PMC9516332 (Frontiers in Oncology, 2022)
Read-outs that look alike come from different tables or passages of the source.

Test system: 134 cancer cell lines
Experiment: Cell viability assay (ATPlite, 72 hours), IC50 on cancer cell line panel

Which results are given for CCn1c(=O)c(-c2cc(NC(=O)Nc3ccccc3)c(F)cc2Br)cc2cnc(NC)cc21 [ripretinib]?
IC50 (Homo sapiens, LS-411N, read-out: IC50 in cell proliferation assay): 2.72 µM; IC50 (Homo sapiens, LoVo, read-out: IC50 in cell proliferation assay): 3.04 µM; IC50 (Homo sapiens, MCF7, read-out: IC50 in cell proliferation assay): > 31.6 µM; IC50 (Homo sapiens, MDA-MB-231, read-out: IC50 in cell proliferation assay): 1.26 µM; IC50 (Homo sapiens, MDA-MB-453, read-out: IC50 in cell proliferation assay): 3.53 µM; IC50 (Homo sapiens, MDA-MB-468, read-out: IC50 in cell proliferation assay): 2.47 µM; IC50 (Homo sapiens, MG-63, read-out: IC50 in cell proliferation assay): 12.3 µM; IC50 (Homo sapiens, MIA PaCa-2, read-out: IC50 in cell proliferation assay): 24.2 µM; IC50 (Homo sapiens, MKN-45, read-out: IC50 in cell proliferation assay): > 31.6 µM; IC50 (Homo sapiens, MOLM-13, read-out: IC50 in cell proliferation assay): 0.238 µM; IC50 (Homo sapiens, MOLT-4, read-out: IC50 in cell proliferation assay): 3.83 µM; IC50 (Homo sapiens, MV4-11, read-out: IC50 in cell proliferation assay): 0.578 µM; IC50 (Homo sapiens, MeWo, read-out: IC50 in cell proliferation assay): 3.58 µM; IC50 (Homo sapiens, NCCIT, read-out: IC50 in cell proliferation assay): 1.73 µM; IC50 (Homo sapiens, NCI-H82, read-out: IC50 in cell proliferation assay): 1.11 µM; IC50 (Homo sapiens, NCI-H460, read-out: IC50 in cell proliferation assay): 1.62 µM; IC50 (Homo sapiens, NCI-H661, read-out: IC50 in cell proliferation assay): 11.8 µM; IC50 (Homo sapiens, NCI-H716, read-out: IC50 in cell proliferation assay): 1.44 µM; IC50 (Homo sapiens, NCI-H1650, read-out: IC50 in cell proliferation assay): > 31.6 µM; IC50 (Homo sapiens, NCI-H1975, read-out: IC50 in cell proliferation assay): 2.17 µM; IC50 (Homo sapiens, NCI-H2228, read-out: IC50 in cell proliferation assay): 4.14 µM; IC50 (Homo sapiens, OVCAR-3, read-out: IC50 in cell proliferation assay): 2 µM; IC50 (Homo sapiens, PFSK-1, read-out: IC50 in cell proliferation assay): 8 µM; IC50 (Homo sapiens, RL95-2, read-out: IC50 in cell proliferation assay): 1.13 µM; IC50 (Homo sapiens, RPMI-7951, read-out: IC50 in cell proliferation assay): 6.45 µM; IC50 (Homo sapiens, RS4-11, read-out: IC50 in cell proliferation assay): 1.17 µM; IC50 (Homo sapiens, Rec1, read-out: IC50 in cell proliferation assay): 5.27 µM; IC50 (Homo sapiens, SHP77, read-out: IC50 in cell proliferation assay): > 31.6 µM; IC50 (Homo sapiens, SK-BR-3, read-out: IC50 in cell proliferation assay): 2.04 µM; IC50 (Homo sapiens, SK-N-AS, read-out: IC50 in cell proliferation assay): 2.37 µM; IC50 (Homo sapiens, SK-N-FI, read-out: IC50 in cell proliferation assay): 2.92 µM; IC50 (Homo sapiens, SK-N-MC, read-out: IC50 in cell proliferation assay): 4.76 µM; IC50 (Homo sapiens, SK-N-SH, read-out: IC50 in cell proliferation assay): 3.61 µM; IC50 (Homo sapiens, SNU-5, read-out: IC50 in cell proliferation assay): 30.2 µM; IC50 (Homo sapiens, SNU-16, read-out: IC50 in cell proliferation assay): 0.773 µM; IC50 (Homo sapiens, SNU-C2B, read-out: IC50 in cell proliferation assay): 15.7 µM; IC50 (Homo sapiens, SU-DHL-1, read-out: IC50 in cell proliferation assay): 2.78 µM; IC50 (Homo sapiens, SU-DHL-6, read-out: IC50 in cell proliferation assay): 8.19 µM; IC50 (Homo sapiens, SUP-T1, read-out: IC50 in cell proliferation assay): 2.46 µM; IC50 (Homo sapiens, SW48, read-out: IC50 in cell proliferation assay): 2.84 µM; IC50 (Homo sapiens, SW480, read-out: IC50 in cell proliferation assay): 3.6 µM; IC50 (Homo sapiens, SW626, read-out: IC50 in cell proliferation assay): 3.91 µM; IC50 (Homo sapiens, SW780, read-out: IC50 in cell proliferation assay): 30.7 µM; IC50 (Homo sapiens, SW837, read-out: IC50 in cell proliferation assay): 7.36 µM; IC50 (Homo sapiens, SW872, read-out: IC50 in cell proliferation assay): 2.46 µM; IC50 (Homo sapiens, SW900, read-out: IC50 in cell proliferation assay): 9.13 µM; IC50 (Homo sapiens, SW948, read-out: IC50 in cell proliferation assay): 1.68 µM; IC50 (Homo sapiens, SW982, read-out: IC50 in cell proliferation assay): 2.26 µM; IC50 (Homo sapiens, SW-620, read-out: IC50 in cell proliferation assay): 1.9 µM; IC50 (Homo sapiens, T98G, read-out: IC50 in cell proliferation assay): 3.47 µM; IC50 (Homo sapiens, TCC-SUP, read-out: IC50 in cell proliferation assay): 1.29 µM; IC50 (Homo sapiens, THP-1, read-out: IC50 in cell proliferation assay): 0.981 µM; IC50 (Homo sapiens, U2OS, read-out: IC50 in cell proliferation assay): 3.38 µM; IC50 (Homo sapiens, U-87 MG, read-out: IC50 in cell proliferation assay): > 31.6 µM; IC50 (Homo sapiens, U-118-MG, read-out: IC50 in cell proliferation assay): 4.22 µM; IC50 (Homo sapiens, UMUC3, read-out: IC50 in cell proliferation assay): 2.89 µM; IC50 (Hs766T, read-out: IC50 in cell proliferation assay): 4.7 µM; IC50 (L-82, read-out: IC50 in cell proliferation assay): 3.03 µM; IC50 (Rh30, read-out: IC50 in cell proliferation assay): 3 µM
